Among the data in patent US9416115B2, “Fused heterocyclic compounds as ion channel modulators” (Gilead Sciences, Inc., priority 2013, dated 2016) are inhibition values, retold here.

In one assay the target is hNav1.1 (SCN1A) (Homo sapiens, UniProt P35498). The experiment in a line: Use-dependent inhibition of the CNS Nav1.1 sodium channel. The class given is cell-based. To be noted: use-dependent block, 25 Hz, pulse 20, read-out: Nav1.1 UDB 25 Hz 10 uM. How it is done: HEK-293 cells stably expressing wild-type (WT) hNav1.1 (SCN1A, NCBI# AB09354) were obtained from Millipore (Cat. # CYL3009) were used to record INa. Cells are maintained with standard tissue culture procedures and stable channel expression is maintained with 400 ug/mL G418 in the culture medium. Unless otherwise noted, all reagents are purchased from Sigma-Aldrich (St Louis, Mo., U.S.A.).
(§1) Assays measuring Use-Dependent Block (UDB) of Nav1.2 are performed on an automated electrophysiology platform, QPatch 16X or QPatch HT (Sophion Bioscience, Copenhagen, Denmark), using the whole cell patch clamp technique to measure currents through the cell membrane. Series resistance compensation is set to 100% and series resistance and whole-cell compensation are performed automatically. Currents stored in the Sophion Bioscience Oracle database (Sophion Bioscience, Copenhagen, Denmark). Analysis is performed using QPatch Assay software and data are compiled in Excel 2010 (Microsoft, Seattle, Wash., U.S.A.).
(§2) The internal (pipette) solution consists of (in mM) 105 CsF, 10 NaF, 20 CsCl, 2 EGTA, 10 HEPES, 10 Dextrose with a pH of 7.35 and osmolarity of 300 mOsmol/kg. The external (bath) solution contains in (mM): 145 NaCl, 4 KCl, 1.8 CaCl2, 1 MgCl2, 10 dextrose, 10 HEPES, with a pH of 7.35 and osmolarity of 310 mOsmol/kg. Experiments are carried out at 23-25° C.
(§3) Compound stocks are routinely made by the Gilead Sample Bank in vials to 10 mM in dimethyl sulfoxide (DMSO). In some cases, when compounds are not soluble in DMSO, they are made in 100% ethanol. Stocks are sonicated as necessary. […]
(§4) Cells are allowed to stabilize for 10 min after establishment of the whole-cell configuration before current is measured. The test compound is applied 2 times at 60 second intervals. After the second compound addition, a 200 second wait period was imposed to allow for equilibration. Leak currents are subtracted by using an online P/4 procedure and all currents are low-pass Bessel filtered at 5 kHz and digitized at […].
Use-dependent block of Nav1.2 peak current is measured during pulse number 20 of a voltage pulse train (0 mV, 20 ms, 20 pulses, 25 Hz) from a holding potential of −120 mV. Currents are normalized to the peak current recorded in response to the first pulse in each frequency train. The voltage protocol for UDB was performed in the absence and presence of compound and percentage inhibition was calculated with respect to the compound free condition. Results are presented as mean percentage inhibition and data analysis is performed using QPatch Assay Software 4.0, and Excel 2002 (Microsoft, Seattle, Wash., U.S.A.).

The next assay addresses T1, hNaV1.2 (SCN2A) (Homo sapiens, UniProt Q99250).
T1 construct: expressed in transfected cells
The assay is described as follows: Use-dependent inhibition of the CNS Nav1.2 sodium channel. The class given is cell-based. Conditions: use-dependent block, 25 Hz, pulse 20, read-out: Nav1.2 UDB 25 Hz 10 uM. As for the experimental part:
HEK-293 cells stably expressing wild-type (WT) hNaV1.2 (SCN2A NCBI # NM_021007.2, SCN1B NCBI # NM_001037.4, SCN2B NCBI # NM_004588.2) were used to record INa. Cells are maintained with standard tissue culture procedures and stable channel expression is maintained with 800 ug/mL G418 and 3 ug/mL Puromycin in the culture medium. Unless otherwise noted, all reagents are purchased from Sigma-Aldrich (St Louis, Mo., U.S.A.).
as §1, §2, §3, §4
Results are presented as mean percentage inhibition.
Use-dependent block of Nav1.2 peak current is measured during pulse number 20 of a voltage pulse train (0 mV, 20 ms, 20 pulses, 25 Hz) from a holding potential of −120 mV.
Currents are normalized to the peak current recorded in response to the first pulse in each frequency train. The voltage protocol for UDB was performed in the absence and presence of compound and percentage inhibition was calculated with respect to the compound free condition.

Each structure is given as a SMILES string. Where only a bound is given, the exact number is not on record here.

T1 sequence (Q99250 whole entry): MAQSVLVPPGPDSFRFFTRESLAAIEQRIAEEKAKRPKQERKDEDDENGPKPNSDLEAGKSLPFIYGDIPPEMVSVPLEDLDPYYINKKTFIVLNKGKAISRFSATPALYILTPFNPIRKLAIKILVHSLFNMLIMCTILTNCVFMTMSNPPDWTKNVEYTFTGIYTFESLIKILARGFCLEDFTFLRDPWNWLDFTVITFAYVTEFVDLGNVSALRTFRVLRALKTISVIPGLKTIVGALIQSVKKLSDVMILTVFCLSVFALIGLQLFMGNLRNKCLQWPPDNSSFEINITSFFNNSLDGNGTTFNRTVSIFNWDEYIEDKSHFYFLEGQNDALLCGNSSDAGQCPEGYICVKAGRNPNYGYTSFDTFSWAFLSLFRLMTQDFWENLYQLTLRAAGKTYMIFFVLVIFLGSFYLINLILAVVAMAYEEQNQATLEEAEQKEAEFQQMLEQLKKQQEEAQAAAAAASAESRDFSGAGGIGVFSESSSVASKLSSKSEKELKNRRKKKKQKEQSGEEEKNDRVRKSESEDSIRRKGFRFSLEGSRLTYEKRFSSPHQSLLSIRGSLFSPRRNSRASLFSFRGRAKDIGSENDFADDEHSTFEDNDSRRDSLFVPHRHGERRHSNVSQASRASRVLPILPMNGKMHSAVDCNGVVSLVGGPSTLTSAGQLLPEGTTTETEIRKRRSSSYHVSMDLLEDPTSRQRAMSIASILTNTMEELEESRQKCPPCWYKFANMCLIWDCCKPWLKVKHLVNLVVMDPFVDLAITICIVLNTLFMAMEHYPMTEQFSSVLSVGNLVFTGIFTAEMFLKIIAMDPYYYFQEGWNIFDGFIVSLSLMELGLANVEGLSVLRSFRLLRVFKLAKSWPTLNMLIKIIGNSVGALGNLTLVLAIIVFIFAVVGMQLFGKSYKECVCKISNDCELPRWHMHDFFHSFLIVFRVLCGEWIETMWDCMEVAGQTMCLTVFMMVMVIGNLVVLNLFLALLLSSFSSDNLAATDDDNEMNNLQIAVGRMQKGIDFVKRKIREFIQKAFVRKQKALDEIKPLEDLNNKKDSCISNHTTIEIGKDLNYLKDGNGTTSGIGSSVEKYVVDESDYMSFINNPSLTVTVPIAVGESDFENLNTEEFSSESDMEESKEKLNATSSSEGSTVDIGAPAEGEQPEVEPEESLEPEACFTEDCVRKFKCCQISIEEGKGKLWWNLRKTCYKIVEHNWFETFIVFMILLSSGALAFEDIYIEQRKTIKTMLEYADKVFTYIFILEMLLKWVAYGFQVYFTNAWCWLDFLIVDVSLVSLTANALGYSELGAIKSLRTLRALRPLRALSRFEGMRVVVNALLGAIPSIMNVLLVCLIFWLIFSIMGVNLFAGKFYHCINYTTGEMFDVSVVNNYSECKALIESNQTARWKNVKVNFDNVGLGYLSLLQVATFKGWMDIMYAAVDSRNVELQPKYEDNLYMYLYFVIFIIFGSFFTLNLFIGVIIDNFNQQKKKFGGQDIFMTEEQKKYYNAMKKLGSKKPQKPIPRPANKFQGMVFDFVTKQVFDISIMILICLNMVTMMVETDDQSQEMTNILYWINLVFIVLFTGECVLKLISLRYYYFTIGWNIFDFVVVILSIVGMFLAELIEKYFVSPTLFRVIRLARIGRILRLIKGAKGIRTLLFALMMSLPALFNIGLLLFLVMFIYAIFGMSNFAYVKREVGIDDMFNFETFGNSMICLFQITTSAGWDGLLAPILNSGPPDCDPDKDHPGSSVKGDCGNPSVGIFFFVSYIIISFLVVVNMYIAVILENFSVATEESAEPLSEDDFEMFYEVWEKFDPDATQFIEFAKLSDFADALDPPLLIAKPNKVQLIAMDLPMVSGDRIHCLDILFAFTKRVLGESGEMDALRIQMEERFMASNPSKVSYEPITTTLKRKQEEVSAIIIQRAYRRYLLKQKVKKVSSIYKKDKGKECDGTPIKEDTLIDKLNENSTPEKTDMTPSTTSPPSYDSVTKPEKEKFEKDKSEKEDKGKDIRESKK
T1 sequence (Q07699 19-218 partner): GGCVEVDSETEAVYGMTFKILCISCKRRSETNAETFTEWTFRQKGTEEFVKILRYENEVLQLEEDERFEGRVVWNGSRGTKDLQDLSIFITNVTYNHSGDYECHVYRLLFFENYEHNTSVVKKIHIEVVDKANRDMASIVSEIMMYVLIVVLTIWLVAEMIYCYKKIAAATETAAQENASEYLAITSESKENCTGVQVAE
T1 sequence (O60939 30-215 partner): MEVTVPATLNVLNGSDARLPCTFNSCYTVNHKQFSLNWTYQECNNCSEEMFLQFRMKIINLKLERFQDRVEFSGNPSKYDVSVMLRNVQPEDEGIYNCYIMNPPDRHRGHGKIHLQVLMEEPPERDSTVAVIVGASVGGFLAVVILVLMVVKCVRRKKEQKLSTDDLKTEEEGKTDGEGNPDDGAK

Turning to `O=C1CCCN1CCNc1noc2ccc(-c3ccc(OC(F)(F)F)cc3)cc12` [Example 135, 1-(2-((5-(4-(trifluoromethoxy)phenyl)benzo[d]isoxazol-3-yl)amino)ethyl)pyrrolidin-2-one], the inhibition at 10 µM was determined as 87.2% on hNav1.1 (SCN1A) and 76.5% at hNaV1.2 (SCN2A).

For `Fc1cccnc1COc1noc2ccc(-c3ccc(OC(F)(F)F)cc3)cc12` [Example 94, 3-((3-fluoropyridin-2-yl)methoxy)-5-(4-(trifluoromethoxy)phenyl)benzo[d]isoxazole], the inhibition at 10 µM on hNav1.1 (SCN1A) and on hNaV1.2 (SCN2A) was less than 5% throughout.

As for `FC(F)(F)Oc1ccc(-c2ccc3onc(NCc4ncccn4)c3c2)cc1` [Example 126, N-(pyrimidin-2-ylmethyl)-5-(4-(trifluoromethoxy)phenyl)benzo[d]isoxazol-3-amine], the inhibition at 10 µM on hNav1.1 (SCN1A) and at hNaV1.2 (SCN2A) was less than 5% each time.

As to `Fc1cc(-c2ccc(OC(F)(F)F)cc2)cc2c(OCc3nnc(C4CC4)o3)noc12` [Example 104, 3-((5-cyclopropyl-1,3,4-oxadiazol-2-yl)methoxy)-7-fluoro-5-(4-(trifluoromethoxy)phenyl)benzo[d]isoxazole], the inhibition at 10 µM came out at 53.1% at hNav1.1 (SCN1A) and 57% on hNaV1.2 (SCN2A).

`FC(F)(F)Oc1ccc(-c2ccc3onc(-n4cnc(Cl)c4)c3c2)cc1` [Example 140, 3-(4-chloro-1H-imidazol-1-yl)-5-(4-(trifluoromethoxy)phenyl)benzo[d]isoxazole]: the inhibition at 10 µM on hNav1.1 (SCN1A) and on hNaV1.2 (SCN2A) was less than 5% each time.

Consider `CC(C)(C)c1cn(-c2noc3ccc(-c4ccc(OC(F)(F)F)cc4)cc23)cn1` [Example 143, 3-(4-(tert-butyl)-1H-imidazol-1-yl)-5-(4-(trifluoromethoxy)phenyl)benzo[d]isoxazole], for which the results for the inhibition at 10 µM at hNav1.1 (SCN1A) and at hNaV1.2 (SCN2A) were 66.6% and 57.1%, respectively.

Consider `FC(F)(F)Oc1ccc(-c2ccc3onc(OCC4CCO4)c3c2)cc1` (stereo not drawn) [Example 42, 3-(oxetan-2-ylmethoxy)-5-(4-(trifluoromethoxy)phenyl)benzo[d]isoxazole], for which the inhibition at 10 µM on hNav1.1 (SCN1A) and on hNaV1.2 (SCN2A) was less than 5% throughout.

For the compound `COc1ccnc(CNc2noc3ccc(-c4ccc(OC(F)(F)F)cc4)cc23)n1` [Example 149, N-((4-methoxypyrimidin-2-yl)methyl)-5-(4-(trifluoromethoxy)phenyl)benzo[d]isoxazol-3-amine], the inhibition at 10 µM on hNav1.1 (SCN1A) worked out at 50%; at hNaV1.2 (SCN2A), 44.4%.

Consider `FC(F)(F)Oc1ccc(-c2ccc3onc(OCc4nnc(C5CC5)s4)c3c2)cc1` [Example 154, 3-((5-cyclopropyl-1,3,4-thiadiazol-2-yl)methoxy)-5-(4-(trifluoromethoxy)phenyl)benzo[d]isoxazole], for which the inhibition at 10 µM is 19.8% at hNav1.1 (SCN1A) and 27% at hNaV1.2 (SCN2A).

Regarding `CC(C)(C)OC(=O)N1CCOC[C@H]1COc1noc2ccc(-c3ccc(OC(F)(F)F)cc3)cc12` [Example 111, tert-butyl(S)-3-(((5-(4-(trifluoromethoxy)phenyl)benzo[d]isoxazol-3-yl)oxy)methyl)morpholine-4-carboxylate], the inhibition at 10 µM on hNav1.1 (SCN1A) worked out at 50.4%; at hNaV1.2 (SCN2A), 47.3%.

With `CC(C)[C@@H](COc1noc2ccc(-c3ccc(OC(F)(F)F)cc3)cc12)N1CCCC1=O` [Example 120, (S)-1-(3-methyl-1-((5-(4-(trifluoromethoxy)phenyl)benzo[d]isoxazol-3-yl)oxy)butan-2-yl)pyrrolidin-2-one], the inhibition at 10 µM at hNav1.1 (SCN1A) was found to be 68.9%; on hNaV1.2 (SCN2A), 74.4%.

For the compound `C[C@H](COc1noc2ccc(-c3ccc(OC(F)(F)F)cc3)cc12)N1CCCC1=O` [Example 119, (R)-1-(1-((5-(4-(trifluoromethoxy)phenyl)benzo[d]isoxazol-3-yl)oxy)propan-2-yl)pyrrolidin-2-one], the inhibition at 10 µM amounted to 56.3% at hNav1.1 (SCN1A) and 52.3% at hNaV1.2 (SCN2A).

On to `CCN(CC)C(=O)COc1noc2ccc(-c3ccc(OC(F)(F)F)cc3)cc12` [Example 150, N,N-diethyl-2-((5-(4-(trifluoromethoxy)phenyl)benzo[d]isoxazol-3-yl)oxy)acetamide], for which the figures for the inhibition at 10 µM on hNav1.1 (SCN1A) and at hNaV1.2 (SCN2A) were 62.8% and 51%, respectively.

`Cc1nnc(COc2noc3ccc(-c4ccc(OC(F)(F)F)cc4)cc23)o1` [Example 99, 3-((5-methyl-1,3,4-oxadiazol-2-yl)methoxy)-5-(4-(trifluoromethoxy)phenyl)benzo[d]isoxazole]: the inhibition at 10 µM is 30% at hNav1.1 (SCN1A) and 50.5% on hNaV1.2 (SCN2A).

For `FC(F)(F)Oc1ccc(-c2ccc3onc(-n4cnc(-c5ccccc5)c4)c3c2)cc1` [Example 142, 3-(4-phenyl-1H-imidazol-1-yl)-5-(4-(trifluoromethoxy)phenyl)benzo[d]isoxazole], the inhibition at 10 µM is 59% at hNav1.1 (SCN1A) and 65% on hNaV1.2 (SCN2A).

For `Cc1cnc(COc2noc3ccc(-c4ccc(OC(F)(F)F)cc4)cc23)cn1` [Example 73, 3-((5-methylpyrazin-2-yl)methoxy)-5-(4-(trifluoromethoxy)phenyl)benzo[d]isoxazole], the inhibition at 10 µM at hNav1.1 (SCN1A) is 10.1%; on hNaV1.2 (SCN2A), less than 5%.

Consider `FC(F)(F)Oc1ccc(-c2ccc3onc(NCc4ncco4)c3c2)cc1` [Example 156, N-(oxazol-2-ylmethyl)-5-(4-(trifluoromethoxy)phenyl)benzo[d]isoxazol-3-amine], for which the inhibition at 10 µM came out at 26.5% on hNav1.1 (SCN1A) and 10.6% on hNaV1.2 (SCN2A).

For the compound `Cc1cc(-c2ccc(OC(F)(F)F)cc2)cc2c(OCc3ncccn3)noc12` [Example 16, 7-methyl-3-(pyrimidin-2-ylmethoxy)-5-(4-(trifluoromethoxy)phenyl)benzo[d]isoxazole], the inhibition at 10 µM turned out to be 27.3% at hNav1.1 (SCN1A) and 18% at hNaV1.2 (SCN2A).

As to `Cc1cc(OC(F)(F)F)ccc1-c1ccc2onc(OCc3ncccn3)c2c1` [Example 3, 5-(2-methyl-4-(trifluoromethoxy)phenyl)-3-(pyrimidin-2-ylmethoxy)benzo[d]isoxazole], the inhibition at 10 µM at hNav1.1 (SCN1A) and on hNaV1.2 (SCN2A) was less than 5% in each case.

Regarding `FC(F)(F)Oc1ccc(-c2ccc3onc(-n4cncn4)c3c2)cc1` [Example 136, 3-(1H-1,2,4-triazol-1-yl)-5-(4-(trifluoromethoxy)phenyl)benzo[d]isoxazole], the inhibition at 10 µM at hNav1.1 (SCN1A) and at hNaV1.2 (SCN2A) was less than 5% each time.

Take `CC(C)c1nccn1-c1noc2ccc(-c3ccc(OC(F)(F)F)cc3)cc12` [Example 144, 3-(2-isopropyl-1H-imidazol-1-yl)-5-(4-(trifluoromethoxy)phenyl)benzo[d]isoxazole]: the inhibition at 10 µM at hNav1.1 (SCN1A) was 73.2%; at hNaV1.2 (SCN2A), 75.8%.

In the case of `FC(F)(F)c1ccc(-c2ccc3onc(OCc4ncccn4)c3c2)cc1` [Example 9, 3-(pyrimidin-2-ylmethoxy)-5-(4-(trifluoromethyl)phenyl)benzo[d]isoxazole], the inhibition at 10 µM on hNav1.1 (SCN1A) and at hNaV1.2 (SCN2A) was less than 5% in each case.

For the compound `COc1cc(-c2ccc(OC(F)(F)F)cc2)cc2c(OCc3ncccn3)noc12` [Example 22, 7-methoxy-3-(pyrimidin-2-ylmethoxy)-5-(4-(trifluoromethoxy)phenyl)benzo[d]isoxazole], the inhibition at 10 µM at hNav1.1 (SCN1A) came to 28.1%; at hNaV1.2 (SCN2A), 40%.

With `Cc1cn(-c2noc3ccc(-c4ccc(OC(F)(F)F)cc4)cc23)cn1` [Example 139, 3-(4-methyl-1H-imidazol-1-yl)-5-(4-(trifluoromethoxy)phenyl)benzo[d]isoxazole], the values for the inhibition at 10 µM on hNav1.1 (SCN1A) and at hNaV1.2 (SCN2A) were 8.8% and 26.1%, respectively.
